The test system of test [1] is peripheral blood monocytes. Kind of test: inhibition of bCRP binding to peripheral blood monocytes. As to conditions: added before staining: 50 μgs CRP, 50 μgs SAP, 10 mM EDTA, 100 μgs PC, human IgG. As to the method:
(§1) Normal peripheral blood and second sample peripheral blood samples were drawn into EDTA containing tubes, unless noted, and stored at room temperature. Blood was stained within 10 hours of collection. […] In addition the removal of the plasma and red cells allowed calcium to be incorporated into the buffer system without subsequent clotting. Lysis was accomplished either by adding a volume of 3 mL of ammonium chloride (Sigma) containing EDTA (Sigma) solution to each 100 μL whole blood for 10 minutes at room temperature or by using the automated T-QPrep Workstation with the ImmunoPrep Reagent System (Coulter Corporation). The ImmunoPrep Reagent System consists of an acid lyse, followed by neutralization and fixation. The lysed blood was centrifuged, the supernatant decanted and the remaining white cell pellet resuspended in 100 μL 0.01M HEPES (Sigma)—0.15M sodium chloride containing 2% Fetal Calf Serum and 2 mM calcium chloride (Sigma), pH 7.4 (HSFC). […] At the end of this time SA-DTAF at a 1:500 dilution (3.6 μg) and 10-20 μL of the appropriate antibody or isotype combination was added for an additional 15 minutes on ice. Cells were then washed with 3 mL HSFC, centrifuged and resuspended to 1 mL in HSFC (0.3% paraformaldehyde was added to ammonium chloride-lysed cells). Stained cells were kept on ice and analyzed within the hour.

Test [2] has as its system THP-1 cells. Description: inhibition of the binding of bCRP to THP-1 cells. More on the design: species or system human. To be noted: for effect on binding of bCRP to THP-1 cells: washed assay, 5 mM EDTA in the primary incubation, PC inclusion or exclusion from the reaction mixture. The text has this:
Staining proceeded using the previously determined optimal non-washed conditions. […] All other staining conditions were as previously described using bHSA as the control.

In test [3] the target is CRP receptor (pentraxin-binding moiety) on human monocytes and myelomonocytic cell lines (human). Kind of test: inhibition of bCRP (about 1 µg/mL) binding to THP-1 cells, flow cytometry, non-washed assay. For orientation: In flow cytometry, cells or beads pass a laser one at a time.
In test [4] the test system is lymphocytes. As to conditions: cited from earlier work.
Test [5] has as its system PMN. As to conditions: cited from earlier work.
For test [6], the system named is monocytes. To be noted: cited from earlier work.
The test system of test [7] is HL-60 cells. Description: flow cytometric ligand binding assay of bCRP:SA-DTAF on untreated, DMSO- or PMA-induced cells. More on the design: species or system human. As to the method: (§2) Flow cytometric analysis was performed immediately.
HL-60 was induced towards either the granulocyte or monocyte pathway with DMSO or phorbol-12-myristate-13-acetate (PMA), respectively. To induce the myelocyte differentiation pathway of HL-60 cells into mature myelocytes or monocytes, a concentration of 1.2% DMSO (Baxter Research, Midvale, Utah) included in the media was added to 2.5×10^5 cells/mL for 6 to 14 days. Monocyte differentiation of HL60 cells was promoted by exposing 5×10^5 cells/mL to 16 nM PMA for 48-72 hours prior to harvest. Untreated cells were always harvested along with the treated cells on the day of testing. A control using the same concentration of PMA dissolution media (DMSO) was also monitored. Viability of cells was determined by trypan blue exclusion and was always greater than 95% except for PMA treated cells that consistently were at 84% due to removal of the adherent cells from the flask via scraping. Prior to staining, the cells were washed with 10 mM HEPES, 150 mM sodium chloride buffer, pH 7.4 containing 0.01% sodium azide, 2% heat-inactivated fetal calf serum and 2 mM calcium chloride (HSFC) and resuspended to 1×10^7 cells/mL.

Test [8] concerns Granulocytes (CD13+ or CD16+). As to conditions: gated by scatter and CD13+ or CD16+. On the procedure:
as §1, with “Cells were then washed with 3 mL HSFC, centrifuged and resuspended to 1 mL in HSFC (0.3% paraformaldehyde was added to ammonium chloride-lysed cells).” left out, “hour. […]” for “hour.”
(§3) A total of six different normal blood samples were drawn, three individual donors on two separate occasions, and evaluated within 30-60 minutes of collection. […]

Test [9] deals with T cell populations (CD4+ or CD8+). As to conditions: lymphocyte scatter. As to the method: as §1, with “Cells were then washed with 3 mL HSFC, centrifuged and resuspended to 1 mL in HSFC (0.3% paraformaldehyde was added to ammonium chloride-lysed cells).” left out, “hour. […]” for “hour.”
as §3

In test [10] the test system is MOLT-4 cells. As to conditions: washed assay.
Description: (§5) After 30 minutes on ice the exposed cells were either washed with 3 mL cold HFCS, centrifuged at 500×g for 3 minutes and resuspended in 100 μL cold HSFC, or left alone to compare washed and non-washed systems. Freshly diluted SA-DTAF in HSFC, 100 μL (9 μg SA-DTAF), was then added to the tubes and incubation proceeded for another 15 minutes on ice protected from light. The stained cells were washed using 3 mL cold HSFC, centrifuged at 500×g for 3 minutes and resuspended in 1 mL cold HSFC containing 0.3% paraformaldehyde (Sigma). Flow cytometric analysis was performed immediately.
(§6) The labeling reagent, SA-DTAF, was kept at a constant 1:200 dilution.
(§7) Target mean channels previously determined for cell lines stained with mouse IgG1-FITC were used to maintain consistency of values. The same fluorescent settings for FITC emission (LFL1) were used for all cell lines to enable direct comparison of median fluorescent intensities. […] Since cell lines consist of a relatively uniform population of cells, a Relative Fluorescent Index (RFI) comparing the level of fluorescence to the negative control was used as a more accurate representation of binding levels. The median value for the peak fluorescence (MdX) was used in place of the mean fluorescence intensity so that any skewed population shifts would be captured. […]
Test [11] concerns peripheral blood monocytes. Kind of test: flow cytometric binding of bCRP:SA-DTAF to peripheral blood monocytes. More on the design: species or system human. On the procedure:
(§4) Blood was stained within 10 hours of collection.
This concentration was used for all subsequent staining. Freshly drawn blood was evaluated within 30 to 60 minutes of collection and examined with specific markers identifying cell populations to ensure that the receptor binding pattern was similar to that obtained up to 10 hours later.
To ensure that enough monocytes were collected for the analysis stop counts were set to collect at least 1000 monocyte events based on forward and side scatter parameters.
Two individual donors were evaluated each day. The concentration of SA-DTAF was kept constant at a 1:500 dilution in HSFC (3.6 μgs). Peripheral blood monocyte binding was used to determine the optimal concentration. The percent positive values were expressed relative to the 2% cursor placed on the same population stained with the bHSA negative control. The choice of a 2% negative cursor instead of the RFI was made since a subset population was suspected due to the appearance of both a positive and negative stained monocyte population.
Single color, two or three-color staining was used along with monocyte forward and side scatter parameters to enumerate the percentage of positively stained cells. A negative staining control, bHSA:SA-DTAF was always run to establish the negative cursor placement. […] The samples were then evaluated for any differences in result due to gender, ethnic origin or age. […] No significant pattern or correlation was observed between the ages of 24 to 65 years and the binding of CRP to monocytes.

For test [12], the system named is Daudi cells. Kind of test: flow cytometric ligand binding assay of bCRP:SA-DTAF on cell lines. More on the design: species or system human. As to conditions: washed assay. As to the method: as §2
The test system of test [13] is U937 cells. The test is described as above. To be noted: washed assay. More on the design: species or system human. As to the method:
as §2

The test system of test [14] is KG-1a cells. Described as above. As to conditions: washed assay. More on the design: species or system human. As to the method: as §2
The subject of test [15] is Raji cells. The description is as above. More on the design: species or system human. As to the method:
as §2

Test [16] relates to THP-1 cells.
Description: as §5, §6, §7
Test [17] has as its system NK cells (CD56+CD16+). Description: three color flow cytometric analysis of bCRP binding in fresh peripheral blood. More on the design: species or system human. To be noted: lymphocyte scatter. As to the method: as §4
In test [18] the target is CRP receptor (pentraxin-binding moiety) on human monocytes and myelomonocytic cell lines (human). Kind of test: 50 µgs purified human SAP added before bCRP staining of peripheral blood monocytes, flow cytometry.
Test [19] deals with isolated human peripheral blood monocytes. To be noted: requirement for calcium, optimal pH 7.4; read-out: dissociation constant; cited from earlier work.
Test [20] has as its target CRP receptor (pentraxin-binding moiety) on human monocytes and myelomonocytic cell lines (human). Kind of test: 50 µgs purified CRP added before bCRP staining of peripheral blood monocytes, flow cytometry.

What is called IC50 is the midpoint of a concentration-inhibition curve. A higher IC50 goes with weaker potency.

Read-outs that look alike come from different tables or passages of the source.

Consider `O=C(O)CN(CCN(CC(=O)O)CC(=O)O)CC(=O)O` [EDTA, reference compound], for which, in test [1], the “inhibition of bCRP binding to peripheral blood monocytes” value is around 98%. Also, the “effect on binding of bCRP to THP-1 cells” value in test [2] is recorded as “abolished”.
For `C[N+](C)(C)CCOP(=O)(O)O` [PC, phosphorylcholine, reference compound], in that order: around 1% and “no significant difference”.
Take “CRP fragment 174-185: defined fragment of CRP, amino acid residues 174-185 of SEQ ID NO: 2 (Sigma) (IYLGGPFSPNVL; human CRP)”: the “inhibition of bCRP binding to THP-1 cells (in words)” value in test [2] (non-washed assay, fragment 174-185 at 100 μgs (˜128 M solution), not repeated, other fragments up to 200 μgs) is “appeared to suppress the reaction”.
As to “CRP: purified human C-reactive protein, pentameric pentraxin of 206 amino acid subunits (SEQ ID NO: 2), used unlabeled as inhibitor”, the “inhibition of bCRP binding to peripheral blood monocytes” value in [1] is around 86%. Besides, in test [2] (non-washed assay, bCRP approximately 1 μg/mL), the “point at which 50% of the binding was inhibited (amount)” value turned out to be 0.72 μgs.
“Limulus CRP (from UniProt P06205 25-242) (ligand)” had a 50% inhibitory concentration (IC50) in test [3] of 0.0087 nM.
Turning to “aggregated CRP: aggregated CRP of a prior report (Zeller et al., 1986)”, the “percent of cells binding” value in [4] is reported as 8%; in test [5] (PMN stimulated with PMA), 93%; in test [5] (resting PMN), “approximately 36%”; in test [6] (monocytes), 70%.
Turning to “bCRP: purified human C-reactive protein labeled with biotin, detected with streptavidin conjugated fluorescein derivative (SA-DTAF)”, the RFI in test [7] (CTL: HL-60 control for PMA-treated cells (same dilution of DMSO as PMA solvent)) worked out at 0.7; in test [7] (DMSO-treated HL-60) it was 1.0; in test [7] (HL-60 treated with PMA, 48 hours (PMA-48)) it was 1.2; in [7] (HL-60 treated with PMA, 72 hours (PMA-72)) it was 1.5; in test [7] (untreated HL60) it was 0.6; in test [16] (THP-1 run at the same time as positive control for the HL-60 induction experiment) it was 25.1. Besides, the binding to cells result in test [7] (untreated or DMSO-treated HL-60 cells, washed and no-wash systems) is given as “negative”. For the same molecule, the “binding of bCRP vs negative bHSA control” value in [8] was “no binding of bCRP above that of the negative control”; in [9], “no binding of bCRP above that of the negative control”; in test [11] (monocytes selected by scatter and CD13, CD14 or CD33) it was “definite fluorescent signal above that of the negative control”; in test [17], “no binding of bCRP above that of the negative control”. Moreover, the “RFI (Relative Fluorescent Index, bCRP MdX / bHSA MdX)” value is given as “under 0.9” in test [10]; “under 0.9” in test [12]; 1.3 in test [13]; 1.2 in test [14]; “under 0.9” in test [15] (washed assay, Raji); 14.5 in test [16] (washed assay, THP-1). Also, the “binding of bCRP” value in [11] (monocyte subset, dual CD14+CD16+) was “bound very little bCRP”. The “normal range of CRP binding by monocytes” value in test [11] (normal donors) is 49-90%. Also, the “percentage of binding (monocytes)” value in test [11] (one-step bCRP:SA-DTAF complex) turned out to be 84.6%; in test [11] (two-step method with wash after primary incubation) it was 85.8%. Also, in test [11] (six freshly drawn normal donors, 30-60 minutes after collection), the “average percent positive values of bCRP binding, monocytes gated by light scatter” value is on record as “approximately 70%”. Further, the “average percent of monocytes binding” value in test [6] (other reports) is reported as 67±12%. Also, the “binding (in words)” value in [15] (B cell line Raji) is on record as “No binding”.
Take “human SAP: another pentraxin, human Serum Amyloid P, >99% purity”: the “inhibition of bCRP binding to peripheral blood monocytes” value in test [1] is reported as around 77%.
In test [18], “human Serum Amyloid P (from UniProt P02743 20-223) (ligand)” gave a percent inhibition of 77%. The same molecule had an IC50 in test [3] of 0.15 nM.
As for “radiolabeled CRP: radiolabeled CRP of a prior report (Ballou et al., 1989)”, the Kd in test [19] is around 100 nM.

B1: purified human C-reactive protein (ligand)
chain: QTDMSRKAFVFPKESDTSYVSLKAPLTKPLKAFTVCLHFYTELSSTRGYSIFSYATKRQDNEILIFWSKDIGYSFTVGGSEILFEVPEVTVAPVHICTSWESASGIVEFWVDGKPRVRKSLKKGYTVGAEASIILGQEQDSFGGNFEGSQSLVGDIGNVNMWDFVLSPDEINTIYLGGPFSPNVLNWRALKYEVQGEVFTKPQLWP
Consider B1, for which the percent inhibition in test [20] came out at 86%.
